Reference: PMC3310894 (Bioorganic & medicinal chemistry, 2012)

Assays:
[1] = test system: COLO-205 tumor xenografts; assay: COLO-205 human metastatic colon mouse xenograft; format: in vivo; conditions: athymic mice, 11a 35 mg/kg, 8 10 mg/kg, three times weekly, IP
[2] = mice; 35 mg/kg of 11a, 10 mg/kg of 8
[3] = biological target: VEGFR-2 (Homo sapiens, UniProt P35968); conditions: for VEGFR-2 inhibition, fold less active than the standard 23: relative to standard 23
[4] = biological target: VEGFR-1 (Homo sapiens, UniProt P17948); conditions: for VEGFR-1 inhibition, fold less active than the standard 21: relative to standard 21
[5] = biological target: EGFR (Homo sapiens, UniProt P00533); conditions: for EGFR inhibition, fold less potent than the standard 20: relative to standard 20 (PD153035)
[6] = biological target: PDGFR-β (Homo sapiens, UniProt P09619); conditions: for PDGFRβ inhibition, fold less active than the standard 22: relative to standard 22 (AG1295)
Sequence of PDGFR-β (P09619 33-1106): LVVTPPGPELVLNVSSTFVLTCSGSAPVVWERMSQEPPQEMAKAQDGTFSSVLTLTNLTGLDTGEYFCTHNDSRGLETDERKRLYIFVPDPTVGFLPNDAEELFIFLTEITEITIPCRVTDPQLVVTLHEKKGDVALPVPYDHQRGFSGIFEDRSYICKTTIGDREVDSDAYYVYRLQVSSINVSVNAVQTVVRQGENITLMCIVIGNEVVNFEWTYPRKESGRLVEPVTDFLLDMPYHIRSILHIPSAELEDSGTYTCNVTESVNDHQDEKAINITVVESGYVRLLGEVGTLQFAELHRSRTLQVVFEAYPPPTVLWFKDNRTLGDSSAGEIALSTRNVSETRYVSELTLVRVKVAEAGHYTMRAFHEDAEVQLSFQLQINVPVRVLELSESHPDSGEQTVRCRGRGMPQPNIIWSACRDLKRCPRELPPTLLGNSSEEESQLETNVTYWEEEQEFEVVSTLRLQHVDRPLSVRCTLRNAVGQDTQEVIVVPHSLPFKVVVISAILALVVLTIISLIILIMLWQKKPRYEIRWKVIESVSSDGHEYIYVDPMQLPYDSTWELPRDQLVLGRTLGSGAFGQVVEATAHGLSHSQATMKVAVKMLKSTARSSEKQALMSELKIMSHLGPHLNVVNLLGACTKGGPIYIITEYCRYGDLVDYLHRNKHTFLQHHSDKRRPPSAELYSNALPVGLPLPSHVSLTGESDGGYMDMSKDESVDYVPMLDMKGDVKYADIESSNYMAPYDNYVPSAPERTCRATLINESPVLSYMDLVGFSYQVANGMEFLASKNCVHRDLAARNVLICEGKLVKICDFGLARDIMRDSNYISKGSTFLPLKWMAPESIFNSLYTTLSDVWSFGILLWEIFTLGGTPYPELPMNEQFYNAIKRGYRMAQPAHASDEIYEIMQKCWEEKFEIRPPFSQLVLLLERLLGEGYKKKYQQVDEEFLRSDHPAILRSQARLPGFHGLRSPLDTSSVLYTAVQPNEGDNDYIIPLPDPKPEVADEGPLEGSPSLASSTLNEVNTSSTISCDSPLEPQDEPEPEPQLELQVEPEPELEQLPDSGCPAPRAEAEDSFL

Sequence of EGFR (P00533 25-1210): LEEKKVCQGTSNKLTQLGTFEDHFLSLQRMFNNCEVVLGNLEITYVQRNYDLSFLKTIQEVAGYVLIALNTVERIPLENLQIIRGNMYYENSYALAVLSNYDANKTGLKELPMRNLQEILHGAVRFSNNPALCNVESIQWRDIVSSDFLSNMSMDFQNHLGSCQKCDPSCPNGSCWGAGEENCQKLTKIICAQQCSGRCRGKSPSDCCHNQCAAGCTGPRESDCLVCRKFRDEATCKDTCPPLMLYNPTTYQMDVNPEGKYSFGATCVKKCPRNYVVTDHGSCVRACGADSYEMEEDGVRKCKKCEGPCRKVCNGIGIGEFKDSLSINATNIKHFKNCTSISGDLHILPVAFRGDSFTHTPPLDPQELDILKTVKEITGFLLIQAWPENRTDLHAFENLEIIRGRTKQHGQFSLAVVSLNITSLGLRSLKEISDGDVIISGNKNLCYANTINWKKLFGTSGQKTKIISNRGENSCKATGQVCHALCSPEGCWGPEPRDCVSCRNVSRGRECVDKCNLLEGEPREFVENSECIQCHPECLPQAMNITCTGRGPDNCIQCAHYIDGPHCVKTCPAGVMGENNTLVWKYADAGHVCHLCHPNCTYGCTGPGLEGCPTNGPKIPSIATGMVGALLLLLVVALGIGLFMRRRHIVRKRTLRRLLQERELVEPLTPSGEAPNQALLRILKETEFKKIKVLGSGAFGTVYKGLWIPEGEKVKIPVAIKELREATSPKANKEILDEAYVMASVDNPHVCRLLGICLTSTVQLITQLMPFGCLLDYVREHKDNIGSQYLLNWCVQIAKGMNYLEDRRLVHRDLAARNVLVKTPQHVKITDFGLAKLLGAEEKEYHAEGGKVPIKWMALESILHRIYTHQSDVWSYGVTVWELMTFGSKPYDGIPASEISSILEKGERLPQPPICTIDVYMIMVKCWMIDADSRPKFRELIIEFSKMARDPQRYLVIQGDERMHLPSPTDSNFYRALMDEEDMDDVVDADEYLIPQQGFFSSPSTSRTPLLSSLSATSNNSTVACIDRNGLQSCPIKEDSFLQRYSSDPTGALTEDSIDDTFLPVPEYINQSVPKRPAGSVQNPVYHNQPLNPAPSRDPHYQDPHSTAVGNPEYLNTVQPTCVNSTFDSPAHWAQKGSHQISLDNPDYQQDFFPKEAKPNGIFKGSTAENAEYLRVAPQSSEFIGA
Sequence of VEGFR-1 (P17948 27-1338): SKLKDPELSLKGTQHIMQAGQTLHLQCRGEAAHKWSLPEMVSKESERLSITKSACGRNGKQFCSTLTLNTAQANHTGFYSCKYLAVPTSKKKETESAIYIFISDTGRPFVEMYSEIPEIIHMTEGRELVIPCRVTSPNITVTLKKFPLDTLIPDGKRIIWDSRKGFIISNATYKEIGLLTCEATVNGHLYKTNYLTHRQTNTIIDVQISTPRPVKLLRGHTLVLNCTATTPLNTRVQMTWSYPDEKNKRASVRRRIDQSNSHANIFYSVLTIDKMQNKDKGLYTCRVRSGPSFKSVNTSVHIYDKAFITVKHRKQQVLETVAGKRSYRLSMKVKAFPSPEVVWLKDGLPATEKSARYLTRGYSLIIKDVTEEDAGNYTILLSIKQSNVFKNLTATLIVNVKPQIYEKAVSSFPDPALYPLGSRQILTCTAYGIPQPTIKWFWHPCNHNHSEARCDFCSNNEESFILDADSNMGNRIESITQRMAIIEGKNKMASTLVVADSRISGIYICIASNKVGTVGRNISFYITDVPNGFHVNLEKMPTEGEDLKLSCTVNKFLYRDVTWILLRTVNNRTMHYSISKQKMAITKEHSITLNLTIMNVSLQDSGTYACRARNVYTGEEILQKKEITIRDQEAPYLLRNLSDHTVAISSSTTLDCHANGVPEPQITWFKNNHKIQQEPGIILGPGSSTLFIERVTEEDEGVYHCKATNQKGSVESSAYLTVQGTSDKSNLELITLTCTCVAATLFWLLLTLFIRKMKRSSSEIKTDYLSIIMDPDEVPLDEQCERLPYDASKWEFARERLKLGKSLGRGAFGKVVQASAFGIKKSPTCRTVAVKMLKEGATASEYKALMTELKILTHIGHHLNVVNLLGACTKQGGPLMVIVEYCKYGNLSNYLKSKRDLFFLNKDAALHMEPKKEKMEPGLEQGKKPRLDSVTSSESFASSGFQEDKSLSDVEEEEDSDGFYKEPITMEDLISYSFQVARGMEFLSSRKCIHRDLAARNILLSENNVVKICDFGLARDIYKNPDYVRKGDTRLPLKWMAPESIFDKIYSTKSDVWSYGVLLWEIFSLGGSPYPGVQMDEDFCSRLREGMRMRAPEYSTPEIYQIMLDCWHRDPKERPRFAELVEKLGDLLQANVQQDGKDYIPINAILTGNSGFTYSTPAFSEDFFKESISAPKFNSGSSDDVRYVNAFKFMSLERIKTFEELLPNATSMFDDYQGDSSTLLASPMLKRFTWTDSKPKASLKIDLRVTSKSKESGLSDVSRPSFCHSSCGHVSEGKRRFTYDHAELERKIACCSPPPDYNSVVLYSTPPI
Sequence of VEGFR-2 (P35968 20-1356): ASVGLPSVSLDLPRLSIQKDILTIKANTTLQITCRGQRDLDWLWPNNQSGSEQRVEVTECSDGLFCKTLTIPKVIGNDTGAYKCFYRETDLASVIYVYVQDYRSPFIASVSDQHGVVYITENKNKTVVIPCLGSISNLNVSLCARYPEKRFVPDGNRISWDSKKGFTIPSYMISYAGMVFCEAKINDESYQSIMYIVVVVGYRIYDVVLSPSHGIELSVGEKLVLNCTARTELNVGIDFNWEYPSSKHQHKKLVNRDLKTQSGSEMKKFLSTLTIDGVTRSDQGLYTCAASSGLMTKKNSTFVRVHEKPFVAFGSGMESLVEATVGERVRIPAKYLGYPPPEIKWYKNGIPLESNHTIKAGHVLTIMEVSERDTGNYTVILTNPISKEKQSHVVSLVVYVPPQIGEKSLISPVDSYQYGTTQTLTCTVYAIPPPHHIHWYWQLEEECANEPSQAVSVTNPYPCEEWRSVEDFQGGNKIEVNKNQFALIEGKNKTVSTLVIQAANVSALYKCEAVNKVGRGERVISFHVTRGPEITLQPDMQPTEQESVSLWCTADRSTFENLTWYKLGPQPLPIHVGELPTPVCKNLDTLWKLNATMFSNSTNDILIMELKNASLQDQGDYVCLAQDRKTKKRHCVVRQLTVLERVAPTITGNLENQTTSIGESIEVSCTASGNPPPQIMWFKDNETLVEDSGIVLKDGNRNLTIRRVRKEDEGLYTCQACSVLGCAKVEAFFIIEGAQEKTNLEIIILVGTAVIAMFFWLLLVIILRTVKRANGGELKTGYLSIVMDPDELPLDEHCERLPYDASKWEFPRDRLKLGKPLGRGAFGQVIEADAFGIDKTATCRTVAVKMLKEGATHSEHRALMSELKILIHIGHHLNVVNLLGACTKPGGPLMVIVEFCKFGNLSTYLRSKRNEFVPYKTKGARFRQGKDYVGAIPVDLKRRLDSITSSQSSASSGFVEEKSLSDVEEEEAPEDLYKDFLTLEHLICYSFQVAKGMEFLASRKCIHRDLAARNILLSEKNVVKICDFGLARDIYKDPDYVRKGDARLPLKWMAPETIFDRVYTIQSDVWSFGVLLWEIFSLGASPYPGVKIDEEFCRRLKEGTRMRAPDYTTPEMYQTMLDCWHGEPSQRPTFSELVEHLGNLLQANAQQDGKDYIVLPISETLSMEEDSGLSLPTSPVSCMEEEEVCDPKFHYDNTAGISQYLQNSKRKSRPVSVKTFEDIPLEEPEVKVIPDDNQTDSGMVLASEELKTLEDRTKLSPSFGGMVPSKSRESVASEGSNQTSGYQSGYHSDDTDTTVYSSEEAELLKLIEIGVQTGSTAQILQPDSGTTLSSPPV

Structure (SMILES)	VEGFR-2 inhibition, fold less active than the standard 23 [3] [fold]	VEGFR-1 inhibition, fold less active than the standard 21 [4]	EGFR inhibition, result in words [5]	other results
Cc1[nH]c(/C=C2\C(=O)Nc3ccccc32)c(C)c1CCC(=O)O [Compound 8, TSU-68, reference compound]				primary tumor growth rate compared to the control [1]: significant decreases; primary tumor vascularity compared to control animals [1]: significant decrease; toxicity in six week toxicity determination study [2]: no overt toxicity
Nc1nc(Nc2cccc(Br)c2)c2ccn(Cc3ccccc3)c2n1 [Compound 9a, 7-benzyl-N^4-(3-bromophenyl)-7H-pyrrolo[2,3-d]pyrimidine-2,4-diamine]	2	5.6 fold		EGFR inhibition, fold less potent than the standard 20 [5]: about 800 fold
Nc1nc(Nc2cccc(Br)c2)c2ccn(Cc3ccccc3Cl)c2n1 [Compound 11a, N^4-(3-bromophenyl)-7-(2-chlorobenzyl)-7H-pyrrolo[2,3-d]pyrimidine-2,4-diamine]	1.6	7 fold		numbers of COLO-205 metastases to the liver [1]: significantly reduced numbers; primary tumor growth rate compared to the control [1]: significant decreases; primary tumor vascularity compared to control animals [1]: significant decrease; PDGFRβ inhibition, result in words [6]: single digit micromolar concentrations; PDGFRβ inhibition, fold more active than parent regioisomer 11 ([6]; relative to 6-substituted regioisomer 11): > 33 fold; toxicity in six week toxicity determination study [2]: no overt toxicity
COc1ccc(OC)c(Cn2ccc3c(Nc4cccc(Br)c4)nc(N)nc32)c1 [Compound 13a, N^4-(3-bromophenyl)-7-(2,5-dimethoxybenzyl)-7H-pyrrolo[2,3-d]pyrimidine-2,4-diamine]			2-digit micromolar inhibition	VEGFR-2 inhibition, result in words [3]: inactive even at 200 μM; EGFR inhibition, fold less potent than the standard 20 [5]: 346 fold
Nc1nc(Nc2cccc(Br)c2)c2ccn(Cc3ccc(Cl)cc3Cl)c2n1 [Compound 14a, N^4-(3-bromophenyl)-7-(2,4-dichlorobenzyl)-7H-pyrrolo[2,3-d]pyrimidine-2,4-diamine]			inactivity	VEGFR-2 inhibition, result in words [3]: inactive
Nc1nc(Nc2cccc(Br)c2)c2ccn(Cc3ccc(Cl)c(Cl)c3)c2n1 [Compound 15a, N^4-(3-bromophenyl)-7-(3,4-dichlorobenzyl)-7H-pyrrolo[2,3-d]pyrimidine-2,4-diamine]	6	7 fold	inactivity	
Nc1nc(Nc2cccc(Br)c2)c2ccn(Cc3cccc4ccccc34)c2n1 [Compound 16a, N^4-(3-bromophenyl)-7-(1-naphthylmethyl)-7H-pyrrolo[2,3-d]pyrimidine-2,4-diamine]	1.4	8.4 fold	abolished	PDGFRβ inhibition, fold less active than the standard 22 [6]: 20 fold; VEGFR-2 inhibition, fold less active than parent regioisomer 16 ([3]; 16a versus 16): 3 fold
Nc1nc(Nc2cccc(Br)c2)c2ccn(Cc3ccc4ccccc4c3)c2n1 [Compound 17a, N^4-(3-bromophenyl)-7-(2-naphthylmethyl)-7H-pyrrolo[2,3-d]pyrimidine-2,4-diamine]	2	2.8 fold	abolished	PDGFRβ inhibition, fold less active than the standard 22 [6]: 34 fold
Nc1nc(Nc2cccc(Br)c2)c2ccn(Cc3ccc(-c4ccccc4)cc3)c2n1 [Compound 18a, 7-Biphenyl-4-ylmethyl-N^4-(3-bromo-phenyl)-7H-pyrrolo[2,3-d]pyrimidine-2,4-diamine]			abolished	VEGFR-1 inhibition, result in words [4]: inactive at a concentration of 200 μM
COc1cc(Cn2ccc3c(Nc4cccc(Br)c4)nc(N)nc32)cc(OC)c1OC [Compound 19a, N^4-(3-Bromo-phenyl)-7-(3,4,5-trimethoxy-benzyl)-7H-pyrrolo[2,3-d]pyrimidine-2,4-diamine]	2	about 8.8 fold	inactivity	PDGFRβ inhibition, result in words [6]: single digit micromolar concentrations
